{"source": "PubChem BioAssay AID1508610", "about": "(The Scripps Research Institute Molecular Screening Center, 2020)", "note": "Active and inactive are the calls of the source. The rule behind the calls is not given here.", "data": [{"target": "G-protein coupled receptor 151 (Homo sapiens) (UniProt Q8TDV0)", "sequence (Q8TDV0 whole entry, looked up)": "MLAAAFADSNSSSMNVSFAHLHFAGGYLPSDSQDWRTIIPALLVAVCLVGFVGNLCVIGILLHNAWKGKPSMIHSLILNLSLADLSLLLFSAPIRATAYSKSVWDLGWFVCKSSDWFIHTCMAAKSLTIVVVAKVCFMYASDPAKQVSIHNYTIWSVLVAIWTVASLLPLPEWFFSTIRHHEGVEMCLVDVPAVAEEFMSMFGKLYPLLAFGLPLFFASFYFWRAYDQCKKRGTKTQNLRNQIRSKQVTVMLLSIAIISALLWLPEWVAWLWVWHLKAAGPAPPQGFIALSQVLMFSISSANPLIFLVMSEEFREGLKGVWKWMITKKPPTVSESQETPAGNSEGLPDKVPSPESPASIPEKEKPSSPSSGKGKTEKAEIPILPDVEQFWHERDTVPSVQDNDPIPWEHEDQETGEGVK", "experiment": "GPR151 activator potency, dose response, cell-based (AID 1508610)", "conditions": "cell-based GPR151 activation reporter", "values": [{"smiles": "CCOc1cc(NC(=O)C2CCCO2)c(OCC)cc1NC(C)=O", "note": "(centres undefined)", "EC50": "> 9.34 µM (inactive)"}, {"smiles": "Cc1cc2nc3c(=O)n(C4CCCCCC4)c(=O)[nH]c3nc2cc1N", "EC50": "> 28 µM (inactive)"}, {"smiles": "CCOc1ccccc1CN1CCN(Cc2cccc(OC)c2)CC1CCO", "note": "(centres undefined)", "EC50": "> 28 µM (inactive)"}, {"smiles": "COc1ccc(-c2ccc(C(N)=O)s2)cn1", "EC50": "> 28.1 µM (inactive)"}, {"smiles": "O=C1CCN(C(=O)c2ccc(-c3nc4ccccc4s3)s2)CC1", "EC50": "> 29.5 µM (inactive)"}, {"smiles": "O=C1CC(C(=O)N2CCCC(c3[nH]ncc3-c3ccccc3)C2)c2ccccc21", "note": "(centres undefined)", "EC50": "> 28 µM (inactive)"}, {"smiles": "COc1ccc(-c2nc(Nc3ccccc3F)c3ccccc3n2)cc1OC", "EC50": "> 28.2 µM (inactive)"}, {"smiles": "OC1CCN(Cc2ccc3c(c2)CN(CC2CC=CCC2)CCO3)CC1", "note": "(centres undefined)", "EC50": "> 28 µM (inactive)"}, {"smiles": "COc1cccc(/C=C/c2nc3ccccc3c(=O)[nH]2)c1O", "EC50": "> 32.3 µM (inactive)"}, {"smiles": "O=C(NCc1ccc(F)cc1)c1cc(-c2ccccc2Cl)nc2ccccc12", "EC50": "> 32.1 µM (inactive)"}, {"smiles": "[O-]/[N+](=C\\c1ccncc1)c1ccc(Cl)cc1", "EC50": "> 28.9 µM (inactive)"}, {"smiles": "COc1ccc(N(CC(=O)Nc2ccccc2-c2ccccc2)S(C)(=O)=O)cc1", "EC50": "> 28 µM (inactive)"}, {"smiles": "CCOC(=O)C1CCC(CN(CC(C)C)S(=O)(=O)c2ccc([N+](=O)[O-])cc2)CC1", "note": "(centres undefined)", "EC50": "> 23.7 µM (inactive)"}, {"smiles": "CCc1ccc2c(c1)/C(=C/C(=O)c1cccs1)C(=O)N2", "EC50": "> 28 µM (inactive)"}, {"smiles": "O=C(Nc1nnc(SCc2cccc(F)c2)s1)C1CC1", "EC50": "> 29 µM (inactive)"}, {"smiles": "CN1CCN(c2ccc(/C=C(\\C#N)C(N)=O)cc2[N+](=O)[O-])CC1", "EC50": "> 28 µM (inactive)"}, {"smiles": "Cc1ccc2nc(NC(=O)C34CC5CC(C3)CC(n3cnc([N+](=O)[O-])n3)(C5)C4)sc2c1", "EC50": "> 28 µM (inactive)"}, {"smiles": "NC[C@H]1O[C@H](O[C@H]2[C@H](O)[C@@H](O[C@H]3O[C@H](CO)[C@@H](O)[C@H](N)[C@H]3O)[C@H](N)C[C@@H]2N)[C@H](N)C[C@@H]1O", "EC50": "> 28 µM (inactive)"}, {"smiles": "CCCCN(CCNC(=O)Cn1ncc2c1-c1cc(C)ccc1OC2)Cc1ccco1", "EC50": "> 28 µM (inactive)"}, {"smiles": "COc1ccc(-c2nnc3sc(NC(=O)C(C)C)nn23)cc1OC", "EC50": "> 28 µM (inactive)"}, {"smiles": "O=C(Nc1noc2ccccc12)c1ccc(F)cc1", "EC50": "> 28 µM (inactive)"}, {"smiles": "O=C(Nc1cc(Cl)ccc1Cl)c1ccccc1O", "EC50": "> 34 µM (inactive)"}, {"smiles": "O=C(O)CN1CCN(Cc2ccc(Cl)cc2)C1=O", "EC50": "> 28 µM (inactive)"}, {"smiles": "Cc1csc2ncc(C(=O)N3CCc4ccccc43)c(=O)n12", "EC50": "> 28 µM (inactive)"}, {"smiles": "CCN(CC)S(=O)(=O)c1ccc(C(=O)Nc2ccc(Cc3ccncc3)cc2)cc1", "EC50": "> 25 µM (inactive)"}, {"smiles": "O=C(O)c1ccc2nc(-c3ccccc3)[nH]c2c1", "EC50": "> 26.3 µM (inactive)"}, {"smiles": "COc1ccc(-c2nc(C(=O)N3CCN(C)CC3)sc2-c2ccc(OC)cc2)cc1", "EC50": "> 11.2 µM (inactive)"}, {"smiles": "COc1cccc(/C=N/NC(=O)C(C)Nc2ccc(C)cc2)c1O", "note": "(centres undefined)", "EC50": "> 28 µM (inactive)"}, {"smiles": "COc1cccc(-c2ccc(SCC(=O)Nc3cccc(NC(C)=O)c3)nn2)c1", "EC50": "> 27.4 µM (inactive)"}, {"smiles": "O=C(O)c1cccc(COc2cccc(Cl)c2)c1", "EC50": "> 28 µM (inactive)"}, {"smiles": "CCC1CN(CCNC(=O)CC2CCCC2)Cc2cc(OC)ccc2O1", "note": "(centres undefined)", "EC50": "> 28 µM (inactive)"}, {"smiles": "Cc1ccc2nc(NC(=O)C3=COCCO3)sc2c1", "EC50": "> 28.4 µM (inactive)"}, {"smiles": "CC(=O)c1ccc(NC(=O)COC(=O)c2ccc3c(c2)nc(C)n3-c2ccccc2)cc1", "EC50": "> 28.8 µM (inactive)"}, {"smiles": "O=C(NCCO)c1ccc2nc(-c3csc4ccccc34)sc2c1", "EC50": "> 28.1 µM (inactive)"}, {"smiles": "CC(=O)c1ccc(OC(=O)c2cccc(Br)c2)cc1", "EC50": "> 25.9 µM (inactive)"}, {"smiles": "COc1ccccc1C(=O)Nc1nc2ccccc2s1", "EC50": "> 26.2 µM (inactive)"}, {"smiles": "COc1ccc(-c2ccc(C(=O)Nc3ccccc3)s2)cc1", "EC50": "> 27.9 µM (inactive)"}, {"smiles": "O=C(O)c1ccc(-c2nc3ccccc3s2)s1", "EC50": "> 30 µM (inactive)"}, {"smiles": "Cc1cccc2c(C(=O)NCc3ccccc3)cc(-c3ccccc3)nc12", "EC50": "> 24.6 µM (inactive)"}]}]}
